Series [1] concerns the target T1, hBACE1 (Homo sapiens, UniProt P56817).
T1 construct: purchased Invitrogen (Pan Vera, Madison, WI, USA)
The series can be described thus: hBACE1 inhibitory activity (FRET assay) and enzyme kinetics. The class given is biochemical. As for the experimental part:
The FRET-based assay was used to evaluate the anti-hBACE1 activity and was performed according to the manufacturer’s instructions. […] The percentage BACE1 inhibitory activity was calculated using the following formula:Inhibition (%) = [1 − (S − S0)/(C − C0)] × 100(1) where C is the control fluorescence without the sample after 60 min of incubation, C0 is the control fluorescence at time 0, S is the test sample fluorescence after 60 min of incubation, and S0 is the test sample fluorescence at time 0.
(§1) Dixon plots were obtained in the presence of different concentrations of substrates for AD-related target enzymes. Michaelis–Menten and Lineweaver–Burk plots were constructed in the absence or presence of various concentrations of honokiol.

Series [2] deals with AChE (Homo sapiens, UniProt P22303). Conditions: Dixon and Lineweaver–Burk plots. As for the experimental part:
The AChE inhibitory activity was measured spectrophotometrically using the modified Ellman method. First, AChE (0.8 U/mL) was added to a mixture containing sodium phosphate buffer (0.1 M; pH 8.0), DTNB (5 mM), and a test sample, followed by incubation at 37 °C for 15 min in 96-well microplates. Next, ACTI (500 µM; substrate for AChE) was added to the mixture to activate the reaction.
as §1

The target of series [3] is T2, hQC (Homo sapiens, UniProt Q16769).
T2 construct: purchased R&D Systems (Minneapolis, MN, USA)
The series is described as follows: hQC inhibitory activity (fluorometric assay) and enzyme kinetics. The class given is biochemical. On the procedure: The inhibitory activity of hQC was evaluated using H-Gln-AMC hydrobromide (400 μM) as the substrate in a fluorometric assay. The buffer consisted of 25 mM HEPES (pH 7.0; adjusted with HCl). The hQC (10 μg/mL) and its auxiliary enzyme pGAPase (50 units) were pre-diluted 1:250 in HEPES. A typical reaction mixture consisted of the substrate, test compounds, and pGAPase. After incubation in black 96-well plates for 10 min at 37 °C, the reaction was initiated by adding hQC solution. The fluorescence intensity of the samples was measured at excitation/emission wavelengths of 380/460 nm, which correlated with the amount of AMC, the end product of the enzymatic process.
(§2) Dixon plots were obtained in the presence of different concentrations of substrates for AD-related target enzymes. Michaelis–Menten and Lineweaver–Burk plots were constructed in the absence or presence of various concentrations of honokiol. The Enzyme Kinetic™ module of SigmaPlot™ version 12.3 (Systat Software, Inc., San Jose, CA, USA) was used to calculate kinetic parameters, such as the Ki, Vmax, and Km.

Series [4] addresses T3, hGSK-3β (Homo sapiens, UniProt P49841).
T3 construct: purchased Promega (Madison, WI, USA)
The series is described as follows: hGSK-3β activity (ADP-Glo/Kinase-Glo assay) and enzyme kinetics. The format is biochemical. As for the experimental part:
Inhibition of hGSK-3β activity was evaluated using the Kinase-Glo assay. To initiate the reaction, test compound and hGSK-3β (20 ng) were added to each well of a 384-well black plate, followed by the addition of 20 μL of assay buffer containing GSM (hGSK-3β substrate peptide, 25 μM) and ATP (final concentration, 1 μM). […] The reaction mixture was then incubated at 37 °C for 30 min, followed by the addition of the ADP-GloTM reagent (20 μL) to terminate the enzymatic reaction and deplete the remaining ATP. The kinase detection reagent was added to the well plate and glow-type luminescence was recorded using a Synergy H1 microplate reader.
as §2

On the set-up of series [5]: method as in PMID 29925102. Conditions: use of honokiol or herbal formulations containing it; cited from earlier work.
Series [6] addresses Aβ1-42 (Homo sapiens, UniProt P05067). The series is described as follows: Anti-Aβ1-42 aggregation (preliminary study). Conditions: compared with honokiol. The format is biochemical.
[7] abbreviates: Dixon and Lineweaver–Burk plots.
Where [8] appears, read: mean ± S.D. of triplicate experiments, read-out: IC50 hQC.
The mark [9] stands for this setting: mean ± S.D. of triplicate experiments, read-out: IC50 hGSK-3β.

Molecules are shown by their SMILES. Where two headings read alike, the source gives them in different places. Where only a bound is given, the exact number is not on record here.

T3 sequence (P49841 whole entry): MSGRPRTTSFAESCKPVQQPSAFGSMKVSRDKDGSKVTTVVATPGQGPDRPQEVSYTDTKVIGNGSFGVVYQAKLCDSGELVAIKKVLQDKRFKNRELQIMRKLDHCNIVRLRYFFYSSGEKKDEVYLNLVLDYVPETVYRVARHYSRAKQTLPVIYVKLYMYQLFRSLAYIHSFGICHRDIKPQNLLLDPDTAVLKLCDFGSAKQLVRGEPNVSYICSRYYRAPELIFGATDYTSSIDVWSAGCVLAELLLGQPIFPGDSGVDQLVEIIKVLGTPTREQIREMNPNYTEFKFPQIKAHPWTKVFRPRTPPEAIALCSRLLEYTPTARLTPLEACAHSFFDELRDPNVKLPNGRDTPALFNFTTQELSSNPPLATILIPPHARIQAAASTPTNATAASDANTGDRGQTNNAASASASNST
T2 sequence (Q16769 29-361): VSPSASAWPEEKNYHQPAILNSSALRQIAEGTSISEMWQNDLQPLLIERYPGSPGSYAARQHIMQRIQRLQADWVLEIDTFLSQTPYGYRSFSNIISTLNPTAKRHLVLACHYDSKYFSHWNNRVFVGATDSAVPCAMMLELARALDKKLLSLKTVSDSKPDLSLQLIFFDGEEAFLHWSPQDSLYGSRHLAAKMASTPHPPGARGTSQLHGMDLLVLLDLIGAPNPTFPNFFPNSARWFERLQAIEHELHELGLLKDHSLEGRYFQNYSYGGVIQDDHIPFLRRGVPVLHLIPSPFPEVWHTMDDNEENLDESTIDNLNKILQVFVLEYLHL
T1 sequence (P56817 46-501): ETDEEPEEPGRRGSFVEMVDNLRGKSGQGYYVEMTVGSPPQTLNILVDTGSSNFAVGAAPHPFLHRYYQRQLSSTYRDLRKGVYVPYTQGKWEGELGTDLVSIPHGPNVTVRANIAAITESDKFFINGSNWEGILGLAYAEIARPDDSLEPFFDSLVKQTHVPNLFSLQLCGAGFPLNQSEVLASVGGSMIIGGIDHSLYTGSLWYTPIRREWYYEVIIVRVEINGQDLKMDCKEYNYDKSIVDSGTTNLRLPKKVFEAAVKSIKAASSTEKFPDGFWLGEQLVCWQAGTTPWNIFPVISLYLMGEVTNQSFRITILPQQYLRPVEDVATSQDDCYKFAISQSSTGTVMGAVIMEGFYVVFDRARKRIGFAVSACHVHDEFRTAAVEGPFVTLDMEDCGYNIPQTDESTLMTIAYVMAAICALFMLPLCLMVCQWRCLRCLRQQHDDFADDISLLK
AChE, sequence (P22303 32-614): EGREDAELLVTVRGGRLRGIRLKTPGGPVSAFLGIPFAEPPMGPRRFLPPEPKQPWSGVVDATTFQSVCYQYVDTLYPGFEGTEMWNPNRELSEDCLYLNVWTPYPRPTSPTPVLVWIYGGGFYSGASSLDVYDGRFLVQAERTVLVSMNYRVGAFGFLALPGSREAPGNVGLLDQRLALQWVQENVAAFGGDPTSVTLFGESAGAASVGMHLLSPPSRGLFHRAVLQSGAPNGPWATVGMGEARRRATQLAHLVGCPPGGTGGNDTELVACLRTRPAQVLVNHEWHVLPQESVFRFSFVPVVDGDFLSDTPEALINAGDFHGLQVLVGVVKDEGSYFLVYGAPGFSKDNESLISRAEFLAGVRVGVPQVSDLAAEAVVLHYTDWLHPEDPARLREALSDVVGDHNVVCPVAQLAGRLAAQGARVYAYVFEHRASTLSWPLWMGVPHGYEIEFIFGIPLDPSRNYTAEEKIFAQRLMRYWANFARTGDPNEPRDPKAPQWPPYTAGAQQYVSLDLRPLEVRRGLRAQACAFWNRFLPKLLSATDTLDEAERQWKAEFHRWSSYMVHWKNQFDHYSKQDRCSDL
Aβ1-42, sequence (P05067 672-713 limits assumed): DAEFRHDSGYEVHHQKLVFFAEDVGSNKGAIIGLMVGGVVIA

With `C=CCc1ccc(O)c(-c2ccc(O)c(CC=C)c2)c1` [Honokiol (39), 3,5′-diallyl-4,2′-dihydroxybiphenyl], the concentration for half-maximal inhibition (IC50) in series [1] came out at 20.6 ± 0.8 µM; in series [3] it was 90.7 ± 1.07 µM; in series [4], 6.7 ± 0.03 µM. Moreover, the Ki in series [1] worked out at 27.3 µM; in series [3], 49.4 µM; in series [4], 9.8 µM. In series [1] (setting [7]), the “Inhibition Mode hBACE1” value is recorded as “Non-competitive”. For the same compound, the “Inhibition Mode AChE” value in series [2] is given as “Non-competitive”. Besides, the “Inhibition Mode hQC” value in series [3] (setting [7]) is given as “Competitive”. Also, the “Inhibition Mode hGSK-3β” value in series [4] (setting [7]) is listed as “Non-competitive”. In addition, the “side effects in humans” value in series [5] was “no side effects have been reported in humans”.
Take `C=CCc1ccc(O)c(-c2cc(CC=C)ccc2O)c1` [Magnolol (51), 5,5′-diallyl-2,2′-dihydroxybiphenyl]: the IC50 was more than 100 µM in series [1] (mean ± S.D. of triplicate experiments, read-out: IC50 hBACE1); more than 100 µM in series [3] (setting [8]); more than 100 µM in series [4] (setting [9]). For the same compound, in series [6], the anti-Aβ1-42 aggregation effects result is “lower anti-Aβ1-42 aggregation effects than that of honokiol”.
Turning to `Oc1ccc(/C=C/c2cc(O)cc(O)c2)cc1` [resveratrol, reference compound], the IC50 in series [3] (setting [8]) came to 30.9 µM.
As for `C[C@@H]1O[C@@H](OC[C@H]2O[C@@H](Oc3c(-c4ccc(O)c(O)c4)oc4cc(O)cc(O)c4c3=O)[C@H](O)[C@@H](O)[C@@H]2O)[C@H](O)[C@H](O)[C@H]1O` [rutin, reference compound], in series [4] (setting [9]), the concentration for half-maximal inhibition (IC50) was determined as 10.8 µM.
